Reference: ChEMBL document CHEMBL4130451, “Design and Synthesis of N-Aryl Phenoxyethoxy Pyridinones as Highly Selective and CNS Penetrant mGlu3 NAMs” (ACS Med Chem Lett, 2017)

What was measured:
Cytochrome P450 2D6 = Cytochrome P450 2D6 (Homo sapiens, UniProt P10635); assay: Inhibition of CYP2D6 in human liver microsomes using dextromethorphan as substrate after 15 mins in presence of NADPH by LC/MS/MS analysis; format: ADME
[1] = Unbound brain to plasma concentration ratio in mouse; format: ADME; details: read-out: K(p,uu,brain)
[2] = target: Neuropeptide Y receptor type 1 (Homo sapiens) (UniProt P25929); assay: Inhibition of human […] Y1 receptor at 10 uM relative to control
[3] = Fraction unbound in human plasma at 5 uM after 4 hrs by equilibrium dialysis based LC/MS/MS analysis; format: ADME, cell-free
[4] = target: Prostaglandin E2 receptor EP4 subtype (Homo sapiens) (UniProt P35408); assay: Inhibition of human EP4 receptor at 10 uM relative to control
[5] = target: Histamine H3 receptor (Homo sapiens) (UniProt Q9Y5N1); assay: Inhibition of human histamine H3 receptor at 10 uM relative to control
[6] = target: D(1A) dopamine receptor (Homo sapiens) (UniProt P21728); assay: Inhibition of human dopamine D1 receptor at 10 uM relative to control
[7] = target: Alpha-1A adrenergic receptor (Rattus norvegicus) (UniProt P43140); assay: Inhibition of rat adrenergic alpha 1A receptor at 10 uM relative to control
[8] = target: 5-hydroxytryptamine receptor 3A (Homo sapiens) (UniProt P46098); assay: Inhibition of human 5-HT3 receptor at 10 uM relative to control
[9] = target: Metabotropic glutamate receptor 5 (Rattus norvegicus, UniProt P31424); assay: Positive allosteric modulation of rat mGlu5 receptor expressed in HEK293A cells assessed as increase in glutamate induced-calcium mobilization preincubated for 2.3 mins followed by glutamate addition measured for 1.9 mins by Fluo-4 AM dye based fluorescence assay; format: functional, cell-based
[10] = target: Estrogen receptor (Homo sapiens) (UniProt P03372); assay: Inhibition of human ERalpha receptor at 10 uM relative to control
[11] = target: Metabotropic glutamate receptor 3 (Rattus norvegicus) (UniProt P31422); assay: Negative allosteric modulation of rat mGlu3 receptor expressed in TREX cells coexpressing Galpha15 assessed as inhibition of glutamate induced-calcium mobilization by measuring minimum glutamate response preincubated for 2.3 mins followed by glutamate addition measured for 2.6 mins by Fluo-4 AM dye based fluorescence assay relative to glutamate; format: functional, cell-based
Mesocricetus auratus = organism: Mesocricetus auratus; assay: Inhibition of syrian hamster KATP at 10 uM relative to control

Sequence of Metabotropic glutamate receptor 3 (Rattus norvegicus) (P31422 23-879 limits assumed): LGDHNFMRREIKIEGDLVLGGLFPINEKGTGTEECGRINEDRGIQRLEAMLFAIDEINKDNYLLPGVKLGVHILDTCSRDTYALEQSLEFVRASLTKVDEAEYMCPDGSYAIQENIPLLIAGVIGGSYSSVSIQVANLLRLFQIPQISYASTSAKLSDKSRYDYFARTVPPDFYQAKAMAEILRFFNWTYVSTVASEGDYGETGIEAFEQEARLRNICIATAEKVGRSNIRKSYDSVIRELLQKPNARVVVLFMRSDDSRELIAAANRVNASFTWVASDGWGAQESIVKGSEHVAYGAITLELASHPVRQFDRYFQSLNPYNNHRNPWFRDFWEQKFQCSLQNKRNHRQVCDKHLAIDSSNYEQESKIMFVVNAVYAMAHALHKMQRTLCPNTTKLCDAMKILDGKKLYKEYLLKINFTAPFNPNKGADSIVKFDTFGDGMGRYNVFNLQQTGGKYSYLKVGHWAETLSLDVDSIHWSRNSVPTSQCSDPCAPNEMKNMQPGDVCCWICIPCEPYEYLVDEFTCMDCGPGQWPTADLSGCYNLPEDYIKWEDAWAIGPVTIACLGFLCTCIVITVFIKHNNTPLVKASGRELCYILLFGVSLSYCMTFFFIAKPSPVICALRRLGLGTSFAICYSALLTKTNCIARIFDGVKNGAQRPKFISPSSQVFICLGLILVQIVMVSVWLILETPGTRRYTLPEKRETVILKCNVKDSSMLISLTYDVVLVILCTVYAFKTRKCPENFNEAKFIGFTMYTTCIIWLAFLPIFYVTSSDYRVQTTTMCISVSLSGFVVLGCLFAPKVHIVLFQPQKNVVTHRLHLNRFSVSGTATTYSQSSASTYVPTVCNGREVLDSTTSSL
Sequence of Metabotropic glutamate receptor 5 (P31424 whole entry): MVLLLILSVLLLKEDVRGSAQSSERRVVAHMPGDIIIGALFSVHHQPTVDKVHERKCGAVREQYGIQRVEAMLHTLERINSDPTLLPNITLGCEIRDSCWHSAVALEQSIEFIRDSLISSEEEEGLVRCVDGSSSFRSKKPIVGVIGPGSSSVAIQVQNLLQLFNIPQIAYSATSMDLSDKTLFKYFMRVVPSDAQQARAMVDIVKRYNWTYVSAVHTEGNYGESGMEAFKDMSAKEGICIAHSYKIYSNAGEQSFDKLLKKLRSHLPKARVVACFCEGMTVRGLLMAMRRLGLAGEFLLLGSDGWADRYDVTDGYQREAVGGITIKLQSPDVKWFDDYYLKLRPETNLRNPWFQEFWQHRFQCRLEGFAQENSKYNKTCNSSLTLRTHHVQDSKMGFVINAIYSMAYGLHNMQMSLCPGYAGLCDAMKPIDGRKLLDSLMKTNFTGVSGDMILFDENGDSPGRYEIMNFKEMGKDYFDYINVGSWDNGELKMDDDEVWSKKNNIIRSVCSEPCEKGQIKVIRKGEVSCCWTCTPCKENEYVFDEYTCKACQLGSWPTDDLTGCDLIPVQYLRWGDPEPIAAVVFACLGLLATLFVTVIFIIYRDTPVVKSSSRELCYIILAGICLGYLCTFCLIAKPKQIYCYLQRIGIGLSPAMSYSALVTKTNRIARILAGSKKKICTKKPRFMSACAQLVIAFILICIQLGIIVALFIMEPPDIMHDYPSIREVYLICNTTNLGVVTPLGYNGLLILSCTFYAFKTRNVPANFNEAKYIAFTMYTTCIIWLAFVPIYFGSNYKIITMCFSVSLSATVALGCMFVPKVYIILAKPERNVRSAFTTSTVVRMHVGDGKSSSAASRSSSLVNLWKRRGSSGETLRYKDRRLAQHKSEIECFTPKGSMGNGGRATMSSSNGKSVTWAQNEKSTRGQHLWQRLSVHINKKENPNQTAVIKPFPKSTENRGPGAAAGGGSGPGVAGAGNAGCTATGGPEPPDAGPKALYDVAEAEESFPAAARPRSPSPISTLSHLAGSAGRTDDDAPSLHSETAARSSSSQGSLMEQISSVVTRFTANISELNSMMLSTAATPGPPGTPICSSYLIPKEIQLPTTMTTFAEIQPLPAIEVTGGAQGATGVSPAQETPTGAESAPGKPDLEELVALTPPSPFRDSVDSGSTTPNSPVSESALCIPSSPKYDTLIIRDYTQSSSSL
Sequence of D(1A) dopamine receptor (Homo sapiens) (P21728 whole entry): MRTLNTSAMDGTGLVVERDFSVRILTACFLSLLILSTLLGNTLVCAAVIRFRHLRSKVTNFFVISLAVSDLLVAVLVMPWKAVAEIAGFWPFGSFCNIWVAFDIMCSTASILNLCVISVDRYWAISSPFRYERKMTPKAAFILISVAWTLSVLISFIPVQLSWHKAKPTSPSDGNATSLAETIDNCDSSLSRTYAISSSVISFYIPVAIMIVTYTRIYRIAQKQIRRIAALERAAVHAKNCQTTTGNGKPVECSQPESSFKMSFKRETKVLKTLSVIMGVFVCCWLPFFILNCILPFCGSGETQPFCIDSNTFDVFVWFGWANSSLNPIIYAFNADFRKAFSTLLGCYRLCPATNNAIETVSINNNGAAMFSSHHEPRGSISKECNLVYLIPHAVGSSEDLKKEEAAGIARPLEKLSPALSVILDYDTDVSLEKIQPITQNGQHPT
Sequence of Alpha-1A adrenergic receptor (Rattus norvegicus) (P43140 whole entry): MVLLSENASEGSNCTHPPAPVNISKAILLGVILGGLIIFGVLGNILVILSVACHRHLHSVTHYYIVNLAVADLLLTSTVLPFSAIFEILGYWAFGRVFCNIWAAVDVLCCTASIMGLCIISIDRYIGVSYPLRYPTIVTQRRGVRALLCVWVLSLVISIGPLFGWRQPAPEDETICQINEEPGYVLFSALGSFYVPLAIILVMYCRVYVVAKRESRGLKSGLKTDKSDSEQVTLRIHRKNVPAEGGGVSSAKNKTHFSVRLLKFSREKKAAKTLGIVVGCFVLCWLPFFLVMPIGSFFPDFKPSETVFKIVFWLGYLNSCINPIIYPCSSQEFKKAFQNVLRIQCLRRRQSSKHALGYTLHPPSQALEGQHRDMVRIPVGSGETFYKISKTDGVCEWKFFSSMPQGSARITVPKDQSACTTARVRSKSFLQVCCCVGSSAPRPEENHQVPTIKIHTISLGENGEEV
Sequence of 5-hydroxytryptamine receptor 3A (Homo sapiens) (P46098 whole entry): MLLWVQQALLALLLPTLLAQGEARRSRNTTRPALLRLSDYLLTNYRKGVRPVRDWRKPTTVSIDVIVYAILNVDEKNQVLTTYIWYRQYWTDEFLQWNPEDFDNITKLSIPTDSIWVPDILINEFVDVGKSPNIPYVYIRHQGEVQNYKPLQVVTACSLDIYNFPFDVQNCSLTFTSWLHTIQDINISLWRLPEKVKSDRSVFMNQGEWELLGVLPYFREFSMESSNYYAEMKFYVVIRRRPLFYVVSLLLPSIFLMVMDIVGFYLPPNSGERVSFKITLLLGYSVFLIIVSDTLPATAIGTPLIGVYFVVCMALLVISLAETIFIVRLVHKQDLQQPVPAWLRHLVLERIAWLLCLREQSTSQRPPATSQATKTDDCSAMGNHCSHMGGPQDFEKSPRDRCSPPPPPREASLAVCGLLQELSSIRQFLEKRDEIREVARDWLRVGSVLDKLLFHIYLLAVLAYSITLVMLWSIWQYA
Sequence of Histamine H3 receptor (Homo sapiens) (Q9Y5N1 whole entry): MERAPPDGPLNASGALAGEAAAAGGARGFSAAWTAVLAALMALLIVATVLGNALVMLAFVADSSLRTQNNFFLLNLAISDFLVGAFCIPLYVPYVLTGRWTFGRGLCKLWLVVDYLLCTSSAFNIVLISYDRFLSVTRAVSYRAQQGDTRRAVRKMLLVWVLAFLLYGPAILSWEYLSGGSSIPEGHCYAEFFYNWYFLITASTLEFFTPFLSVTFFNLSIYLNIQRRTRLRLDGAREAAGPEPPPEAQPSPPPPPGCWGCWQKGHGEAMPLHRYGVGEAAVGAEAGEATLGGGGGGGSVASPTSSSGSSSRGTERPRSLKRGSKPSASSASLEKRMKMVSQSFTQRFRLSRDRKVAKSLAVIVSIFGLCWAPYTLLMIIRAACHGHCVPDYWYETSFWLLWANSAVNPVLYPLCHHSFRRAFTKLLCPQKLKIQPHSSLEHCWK
Sequence of Neuropeptide Y receptor type 1 (Homo sapiens) (P25929 whole entry): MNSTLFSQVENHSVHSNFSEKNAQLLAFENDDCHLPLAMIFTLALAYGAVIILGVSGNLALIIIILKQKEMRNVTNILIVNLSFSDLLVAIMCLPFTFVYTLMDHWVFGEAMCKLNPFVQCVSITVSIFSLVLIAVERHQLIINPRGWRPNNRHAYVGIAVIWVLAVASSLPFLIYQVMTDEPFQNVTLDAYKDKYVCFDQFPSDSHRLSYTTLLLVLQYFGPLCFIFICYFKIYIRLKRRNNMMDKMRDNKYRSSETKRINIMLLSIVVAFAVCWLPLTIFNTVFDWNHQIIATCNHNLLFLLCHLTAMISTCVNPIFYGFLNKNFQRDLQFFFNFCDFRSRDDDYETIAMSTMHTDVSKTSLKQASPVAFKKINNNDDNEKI
Sequence of Estrogen receptor (Homo sapiens) (P03372 whole entry): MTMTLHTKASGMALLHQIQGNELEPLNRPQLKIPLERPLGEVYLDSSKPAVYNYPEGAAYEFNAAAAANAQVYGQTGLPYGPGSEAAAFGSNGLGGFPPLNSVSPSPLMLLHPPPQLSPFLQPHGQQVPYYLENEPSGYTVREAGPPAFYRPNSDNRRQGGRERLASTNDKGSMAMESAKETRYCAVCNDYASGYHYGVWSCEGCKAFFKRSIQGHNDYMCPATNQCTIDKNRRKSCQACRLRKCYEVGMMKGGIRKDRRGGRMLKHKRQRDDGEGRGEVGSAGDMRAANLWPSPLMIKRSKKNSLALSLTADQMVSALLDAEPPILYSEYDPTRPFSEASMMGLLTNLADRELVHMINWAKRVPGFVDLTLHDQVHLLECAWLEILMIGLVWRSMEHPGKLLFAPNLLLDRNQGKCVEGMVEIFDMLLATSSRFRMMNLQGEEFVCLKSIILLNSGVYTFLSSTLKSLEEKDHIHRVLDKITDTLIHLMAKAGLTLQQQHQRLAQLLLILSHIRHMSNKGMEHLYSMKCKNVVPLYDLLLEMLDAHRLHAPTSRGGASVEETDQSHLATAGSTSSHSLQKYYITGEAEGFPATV

C[C@@H](COc1ccn(-c2ccc(F)cc2)c(=O)c1)Oc1ccccc1
IC50 (Cytochrome P450 2D6): > 30 µM | Kp uu [1]: 0.26 | inhibition [2]: > 50% | fraction unbound at 4 h, 5 µM [3]: 0.18 | inhibition [4]: > 50% | inhibition [5]: > 50% | inhibition [6]: > 50% | inhibition [7]: > 50% | inhibition [8]: > 50% | EC50 [9]: > 30 µM | inhibition [10]: > 50% | Emin [11]: 3.33% | inhibition (Mesocricetus auratus): > 50%
